Measured values taken from the NIST ThermoML archive (doi:10.1021/je800635g).

Test: xn = mol fraction of the nth substance listed
Conditions: Liquid, Falling or rolling sphere viscometry

Cc1ccc(C)cc1 [1,4-dimethylbenzene] + CC(=O)O
viscosity [mPa·s]
Conditions | x1 = 0.1001 | x1 = 0.1997 | x1 = 0.3001 | x1 = 0.3997 | x1 = 0.5 | x1 = 0.6002 | x1 = 0.6988 | x1 = 0.7994 | x1 = 0.8994
313.15 K, 100 kPa | 0.725 | 0.63 | 0.571 | 0.522 | 0.52 | 0.514 | 0.508 | 0.505 | 0.499
313.15 K, 800 kPa | 0.731 | 0.635 | 0.576 | 0.527 | 0.524 | 0.519 | 0.512 | 0.509 | 0.503
313.15 K, 1600 kPa | 0.737 | 0.641 | 0.583 | 0.532 | 0.53 | 0.524 | 0.517 | 0.514 | 0.508
313.15 K, 2400 kPa | 0.743 | 0.647 | 0.585 | 0.537 | 0.535 | 0.529 | 0.522 | 0.519 | 0.513
313.15 K, 3200 kPa | 0.749 | 0.653 | 0.591 | 0.543 | 0.541 | 0.534 | 0.527 | 0.525 | 0.518
333.15 K, 100 kPa | 0.587 | 0.508 | 0.459 | 0.424 | 0.419 | 0.418 | 0.415 | 0.412 | 0.407
333.15 K, 800 kPa | 0.592 | 0.514 | 0.464 | 0.429 | 0.424 | 0.423 | 0.419 | 0.416 | 0.411
333.15 K, 1600 kPa | 0.598 | 0.52 | 0.47 | 0.434 | 0.429 | 0.428 | 0.424 | 0.422 | 0.416
333.15 K, 2400 kPa | 0.605 | 0.526 | 0.476 | 0.44 | 0.435 | 0.433 | 0.429 | 0.427 | 0.421
333.15 K, 3200 kPa | 0.611 | 0.532 | 0.482 | 0.445 | 0.44 | 0.438 | 0.435 | 0.432 | 0.427
353.15 K, 100 kPa | 0.481 | 0.419 | 0.378 | 0.351 | 0.347 | 0.342 | 0.341 | 0.339 | 0.339
353.15 K, 800 kPa | 0.487 | 0.425 | 0.384 | 0.356 | 0.352 | 0.347 | 0.346 | 0.343 | 0.344
353.15 K, 1600 kPa | 0.493 | 0.431 | 0.39 | 0.361 | 0.357 | 0.352 | 0.351 | 0.349 | 0.349
353.15 K, 2400 kPa | 0.499 | 0.437 | 0.396 | 0.367 | 0.363 | 0.357 | 0.356 | 0.354 | 0.354
353.15 K, 3200 kPa | 0.505 | 0.444 | 0.402 | 0.372 | 0.368 | 0.363 | 0.361 | 0.359 | 0.359
373.15 K, 100 kPa | 0.399 | 0.353 | 0.314 | 0.297 | 0.293 | 0.289 | 0.287 | 0.285 | 0.288
373.15 K, 800 kPa | 0.405 | 0.359 | 0.319 | 0.302 | 0.298 | 0.293 | 0.291 | 0.289 | 0.293
373.15 K, 1600 kPa | 0.412 | 0.365 | 0.326 | 0.307 | 0.303 | 0.299 | 0.296 | 0.294 | 0.298
373.15 K, 2400 kPa | 0.418 | 0.372 | 0.332 | 0.313 | 0.309 | 0.304 | 0.302 | 0.3 | 0.303
373.15 K, 3200 kPa | 0.424 | 0.378 | 0.338 | 0.319 | 0.315 | 0.309 | 0.307 | 0.305 | 0.308
393.15 K, 800 kPa | 0.34 | 0.294 | 0.269 | 0.252 | 0.253 | 0.249 | 0.256 | 0.254 | 0.254
393.15 K, 1600 kPa | 0.345 | 0.3 | 0.275 | 0.258 | 0.258 | 0.254 | 0.261 | 0.258 | 0.259
393.15 K, 2400 kPa | 0.352 | 0.306 | 0.281 | 0.263 | 0.264 | 0.26 | 0.266 | 0.264 | 0.265
393.15 K, 3200 kPa | 0.358 | 0.313 | 0.287 | 0.269 | 0.27 | 0.265 | 0.272 | 0.27 | 0.27
413.15 K, 800 kPa | 0.294 | 0.255 | 0.237 | 0.221 | 0.217 | 0.218 | 0.222 | 0.219 | 0.22
413.15 K, 1600 kPa | 0.3 | 0.26 | 0.243 | 0.227 | 0.217 | 0.223 | 0.227 | 0.225 | 0.225
413.15 K, 2400 kPa | 0.307 | 0.265 | 0.249 | 0.233 | 0.228 | 0.229 | 0.232 | 0.23 | 0.231
413.15 K, 3200 kPa | 0.313 | 0.271 | 0.255 | 0.239 | 0.233 | 0.234 | 0.237 | 0.235 | 0.236
433.15 K, 800 kPa | – | 0.223 | 0.208 | 0.196 | 0.195 | 0.194 | 0.194 | 0.191 | 0.194
433.15 K, 1600 kPa | 0.26 | 0.228 | 0.213 | 0.202 | 0.201 | 0.199 | 0.199 | 0.197 | 0.199
433.15 K, 2400 kPa | 0.267 | 0.233 | 0.219 | 0.208 | 0.206 | 0.205 | 0.204 | 0.202 | 0.204
433.15 K, 3200 kPa | 0.273 | 0.239 | 0.226 | 0.213 | 0.212 | 0.21 | 0.209 | 0.208 | 0.209
453.15 K, 800 kPa | 0.221 | 0.196 | 0.181 | 0.177 | 0.174 | 0.173 | 0.173 | 0.17 | 0.17
453.15 K, 1600 kPa | 0.227 | 0.201 | 0.186 | 0.183 | 0.18 | 0.179 | 0.178 | 0.176 | 0.175
453.15 K, 2400 kPa | 0.233 | 0.206 | 0.192 | 0.188 | 0.185 | 0.184 | 0.183 | 0.181 | 0.18
453.15 K, 3200 kPa | 0.24 | 0.211 | 0.198 | 0.194 | 0.191 | 0.189 | 0.188 | 0.187 | 0.184
473.15 K, 1600 kPa | 0.19 | 0.17 | 0.162 | 0.162 | 0.161 | 0.16 | 0.16 | 0.157 | 0.159
473.15 K, 2400 kPa | 0.196 | 0.175 | 0.168 | 0.167 | 0.166 | 0.165 | 0.164 | 0.162 | 0.164
473.15 K, 3200 kPa | 0.202 | 0.181 | 0.173 | 0.173 | 0.171 | 0.17 | 0.169 | 0.168 | 0.168
